EC50 data for nine molecules are collected here from patent US10344019B2 (priority 2010, dated 2019).

Holding throughout (assay): microbe, parasite or virus in culture
Common to all, as to format: cell-based

Experiment [1] relates to HCV 4a Rluc cells (NS5A chimeric genotype 1b Con1 replicon with genotype 4a NS5A gene). Conditions: Hepatitis C virus, read-out: 4a. The method, boiled down: (§1)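 Replicon cells stably carrying the listed RLuc-encoding dicistronic replicons were seeded and treated with DMSO serial dilutions of compound (10 mM stocks) diluted into culture medium. After 72 h, cells were lysed and Renilla luciferase activity measured. EC50 was derived by non-linear regression.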

The test system of experiment [2] is HCV 1a RLuc cells (dicistronic genotype 1a H77 replicon, RLuc reporter). The following applies: Hepatitis C virus, read-out: 1a. The method, boiled down:
(§2)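 Renilla luciferase HCV replicon cells: dicistronic 1b Con1, 1a H77 or 2a JFH-1 replicons, or a JFH-1 chimera carrying J6 NS5A (M31 present). Compound in DMSO serial dilutions, 72 h incubation, then lysis and luciferase read. EC50 by non-linear regression.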

Experiment [3] deals with HCV 2a JFH-1 Rluc cells (dicistronic genotype 2a JFH-1 replicon, RLuc reporter). The following applies: Hepatitis C virus, genotype 2a JFH-1 replicon, read-out: 2a JFH. The procedure, abridged: as §2
For orientation: A replicon is a self-replicating genome or part of one, used to study replication in cells.

Experiment [4] deals with HCV 3a RLuc cells (NS5A chimeric genotype 1b Con1 replicon with consensus genotype 3a NS5A gene). The following applies: Hepatitis C virus. The procedure, abridged: as §1
Experiment [5] has as its system HCV 1b RLuc cells (dicistronic genotype 1b Con1 replicon, RLuc reporter). Conditions: Hepatitis C virus, read-out: 1b (nM). The method, boiled down: as §2
The mark [6] stands for this setting: genotype 1a H77 replicon, RLuc reporter.
[7] abbreviates: read-out: 3a, genotype 3a NS5A chimeric 1b Con1 replicon.
Where [8] appears, read: 72 h, Table 2, genotype 1a H77 replicon, 72 hours.
The mark [9] stands for this setting: read-out: 3a, Table 2, genotype 3a NS5A chimeric replicon.
Setting [10] is: read-out: 3a, genotype 3a replicon.

Read-outs that look alike come from different tables or passages of the source.

With `COC(=O)N[C@H](C(=O)N1CCC[C@H]1c1ncc(-c2ccc3cc(-c4ccc(-c5cnc([C@@H]6CCCN6C(=O)[C@H](NC(=O)C6CCCO6)c6ccccc6)[nH]5)cc4)ccc3c2)[nH]1)C(C)C` (stereo partly drawn) [Example 261], the EC50 in experiment [1] was 1 to 990 pM; in experiment [2] (setting [6]), 1 to 999 pM; in experiment [3] (RLuc reporter) it was 1 to 999 pM; in experiment [4] (setting [7]), 1 to 990 pM; in experiment [5], 0.011 nM.
Consider `COC(=O)N[C@H](C(=O)N1CC2(CC2)C[C@H]1c1ncc(-c2ccc3c(c2)C(F)(F)c2cc(-c4ccc5nc([C@@H]6[C@H]7CC[C@H](C7)N6C(=O)[C@@H](c6ccccc6)N6CCOCC6)[nH]c5c4)ccc2-3)[nH]1)C(C)C` [Example 96], for which the EC50 in experiment [1] was 1 to 990 pM; in experiment [2] (setting [8]), 1 to 999 pM; in experiment [3] (72 h, Table 2, 72 hours) it was 1000 to 44000 pM; in experiment [4] (setting [9]), 1000 to 4990 pM; in experiment [5] (72 h), 0.006 nM.
For the molecule `COC(=O)N[C@H](C(=O)N1[C@@H]2CC[C@@H](C2)[C@H]1c1ncc(-c2ccc(-c3ccc4cc(-c5cnc([C@@H]6CCCN6C(=O)[C@H](NC(=O)OC)c6ccccc6)[nH]5)ccc4c3)cc2)[nH]1)C1CCOCC1` [Example 71], the EC50 in experiment [1] is 1 to 990 pM; in experiment [2] (setting [8]) it was 1 to 999 pM; in experiment [3] (72 h, Table 2, 72 hours), 1 to 999 pM; in experiment [4] (setting [9]), 1 to 990 pM; in experiment [5] (72 h), 0.013 nM.
For `COC(=O)N[C@H](C(=O)N1CCC[C@H]1c1nc2ccc3cc(-c4ccc(-c5cnc([C@@H]6CC7(CN6C(=O)[C@H](NC(=O)OC)c6ccccc6)OCCO7)[nH]5)cc4)ccc3c2[nH]1)C(C)C` [Example 296], the EC50 is 1 to 990 pM in experiment [1]; 1 to 999 pM in experiment [2] (genotype 1a replicon); 1 to 999 pM in experiment [3]; 1 to 990 pM in experiment [4] (setting [10]); 0.063 nM in experiment [5].
Consider `CCN(CC)C(C(=O)N1CCC[C@H]1c1ncc(-c2ccc(-c3ccc4c(c3)C(F)(F)c3cc(-c5cnc([C@@H]6CCCN6C(=O)C(NC(=O)OC)C(C)C)[nH]5)ccc3-4)cc2)[nH]1)c1ccccc1` (stereo partly drawn) [Example 200], for which the EC50 in experiment [1] was 1 to 990 pM; in experiment [2] (setting [6]) it was 1000 to 44000 pM; in experiment [3] (RLuc reporter), 1000 to 44000 pM; in experiment [4] (setting [7]) it was 1000 to 4990 pM; in experiment [5], 0.009 nM.
With `COC(=O)N[C@H](C(=O)N1CC(F)(F)C[C@H]1c1ncc(-c2ccc(-c3ccc4cc(-c5cnc([C@@H]6CCCN6C(=O)[C@H](NC(=O)OC)c6ccccc6)[nH]5)ccc4c3)cc2)[nH]1)C1CCOCC1` [Example 224], the EC50 in experiment [1] was 1 to 990 pM; in experiment [2] (setting [6]), 1 to 999 pM; in experiment [3] (RLuc reporter) it was 1 to 999 pM; in experiment [4] (setting [7]), 1 to 990 pM; in experiment [5] it was 0.008 nM.
With `COC(=O)N[C@H](C(=O)N1CCC[C@H]1c1ncc(-c2cc3c4c(c2)OCc2cc(-c5cnc([C@@H]6CCCN6C(=O)C(c6ccccc6)N(C)C)[nH]5)cc(c2-4)OC3)[nH]1)C(C)C` (stereo partly drawn) [Example 307], the EC50 is 1 to 990 pM in experiment [1]; 1 to 999 pM in experiment [2] (genotype 1a replicon); 1 to 999 pM in experiment [3]; 1 to 990 pM in experiment [4] (setting [10]); 0.091 nM in experiment [5].
Take `COC(=O)N[C@H](C(=O)N1[C@@H]2CC[C@@H](C2)[C@H]1c1nc2c([nH]1)-c1ccc(-c3ccc4c(ccc5nc([C@@H]6CCCN6C(=O)[C@@H](NC(=O)OC)C6CCOCC6)[nH]c54)c3)cc1CC2)C(C)C` [Example 291]: the EC50 in experiment [1] was 1 to 990 pM; in experiment [2] (genotype 1a replicon), 1 to 999 pM; in experiment [3] it was 1 to 999 pM; in experiment [4] (setting [10]), 1 to 990 pM; in experiment [5], 0.103 nM.
With `COC(=O)N[C@H](C(=O)N1[C@@H]2CC[C@@H](C2)[C@H]1c1ncc(-c2ccc(-c3ccc(-c4cnc([C@@H]5C[C@H]6C[C@H]6N5C(=O)[C@@H](NC(=O)OC)C(C)C)[nH]4)cc3)cc2)[nH]1)C(C)C` [Example 99], the EC50 in experiment [1] was 1 to 990 pM; in experiment [2] (setting [8]), 1 to 999 pM; in experiment [3] (72 h, Table 2, 72 hours), 1 to 999 pM; in experiment [4] (setting [9]), 1000 to 4990 pM; in experiment [5] (72 h) it was 0.021 nM.
